Data: PubChem BioAssay AID328 (DTP/NCI, 2004)
“And” between values parts separate entries of the source, which are not always exact repeats. Equal entries are not always repeated. Inconclusive results and toxic doses are left out.

Test system: BDF1 mice, P388 leukemia ip, median survival T/C
Assay: NCI In Vivo Anticancer Drug Screen. Data for tumor model P388 Leukemia (intraperitoneal) in B6D2F1 (BDF1) mice
Details: endpoint: median survival time, higher = longer survival
Experimental: The antitumor activity of compounds was measured in mice bearing transplantable tumors. Survival or tumor size were measured and the results are expressed as the measurement made in the treated group (T) divided by the measurement made in the vehicle treated control group (C). The tumor model used in this assay is P388 Leukemia (intraperitoneal) in B6D2F1 (BDF1) mice

[1] = dose: 50.0 mg/kg/injection, schedule: Q04DX003 (ip), vehicle: saline
[2] = dose: 100.0 mg/kg/injection, schedule: Q04DX003 (ip), vehicle: saline
[3] = dose: 200.0 mg/kg/injection, schedule: Q04DX003 (ip), vehicle: saline
[4] = dose: 100.0 mg/kg/injection, schedule: Q01DX009 (ip), vehicle: saline sonified
[5] = dose: 100.0 mg/kg/injection, schedule: Q04DX003 (ip), vehicle: saline with Tween-80
[6] = dose: 200.0 mg/kg/injection, schedule: Q04DX003 (ip), vehicle: saline with Tween-80
[7] = dose: 400.0 mg/kg/injection, schedule: Q04DX003 (ip), vehicle: saline with Tween-80
[8] = dose: 50.0 mg/kg/injection, schedule: Q01DX009 (ip), vehicle: saline with Tween-80
[9] = dose: 100.0 mg/kg/injection, schedule: Q01DX009 (ip), vehicle: saline with Tween-80
[10] = dose: 200.0 mg/kg/injection, schedule: Q01DX009 (ip), vehicle: saline with Tween-80
[11] = dose: 12.5 mg/kg/injection, schedule: Q01DX009 (ip), vehicle: Klucel (hydroxypropylcellulose) (HPC)
[12] = dose: 25.0 mg/kg/injection, schedule: Q01DX009 (ip), vehicle: Klucel (hydroxypropylcellulose) (HPC)
[13] = dose: 50.0 mg/kg/injection, schedule: Q01DX009 (ip), vehicle: Klucel (hydroxypropylcellulose) (HPC)
[14] = dose: 100.0 mg/kg/injection, schedule: Q04DX003 (ip), vehicle: Klucel (hydroxypropylcellulose) (HPC)
[15] = dose: 200.0 mg/kg/injection, schedule: Q04DX003 (ip), vehicle: Klucel (hydroxypropylcellulose) (HPC)
[16] = dose: 400.0 mg/kg/injection, schedule: Q04DX003 (ip), vehicle: Klucel (hydroxypropylcellulose) (HPC)

Nc1nc(N)c(Nc2ccc(Cl)cc2)c(Cl)n1
T/C (dose: 100.0 mg/kg/injection, schedule: Q01DX001 (ip), vehicle: saline with Tween-80): 88 % of control
T/C (dose: 200.0 mg/kg/injection, schedule: Q01DX001 (ip), vehicle: saline with Tween-80): 89 % of control

O=C1C(Cl)=CC(=NS(=O)(=O)c2ccccc2)C=C1Cl
T/C (dose: 3.13 mg/kg/injection, schedule: Q04DX003 (ip), vehicle: saline with Tween-80): 110 % of control
T/C (dose: 6.25 mg/kg/injection, schedule: Q04DX003 (ip), vehicle: saline with Tween-80): 110 % of control
T/C (dose: 12.5 mg/kg/injection, schedule: Q04DX003 (ip), vehicle: saline with Tween-80): 110 % of control

CC(=O)Nc1ccc(S(=O)(=O)NNC(=O)C(=O)Nc2cccc(Cl)c2)cc1
T/C (dose: 50.0 mg/kg/injection, schedule: Q01DX005 (ip), vehicle: saline with Tween-80): 96 % of control
T/C (dose: 100.0 mg/kg/injection, schedule: Q01DX005 (ip), vehicle: saline with Tween-80): 89 % of control
T/C (dose: 200.0 mg/kg/injection, schedule: Q01DX005 (ip), vehicle: saline with Tween-80): 96 % of control

O=C(Nc1cc(C(F)(F)F)ccc1Cl)Nc1cc(C(F)(F)F)c(Cl)cc1S(=O)(=O)O
T/C [1]: 90 % of control
T/C [2]: 109 % of control
T/C [3]: 122 % of control

CC/C(=C(\CC)c1ccc(OC)cc1)c1ccc(O)cc1
T/C [4]: 105 % of control
T/C [5]: 109 % of control
T/C (dose: 200.0 mg/kg/injection, schedule: Q01DX009 (ip), vehicle: saline sonified): 110 % of control
T/C [6]: 104 % of control
T/C (dose: 400.0 mg/kg/injection, schedule: Q01DX009 (ip), vehicle: saline sonified): 115 % of control
T/C [7]: 95 % of control

CCCCCCCOc1ccc(OCCCC[N+]2(CC)CCCCC2)cc1
T/C (dose: 6.25 mg/kg/injection, schedule: Q01DX009 (ip), vehicle: saline): 100 % of control

c1ccc2sc(SSN3CC4CCC(CC4)C3)nc2c1
T/C [8]: 102 % of control and 122 % of control

CCc1nnc2c3cc4ccccc4n3cnn12
T/C [8]: 86 % of control
T/C [9]: 87 % of control
T/C [10]: 103 % of control

CC1(Cl)C(=O)NC(=O)C1Cl (stereo not drawn)
T/C (dose: 3.12 mg/kg/injection, schedule: Q04DX003 (ip), vehicle: saline): 92 % of control
T/C (dose: 6.25 mg/kg/injection, schedule: Q04DX003 (ip), vehicle: saline): 95 % of control
T/C (dose: 12.5 mg/kg/injection, schedule: Q04DX003 (ip), vehicle: saline): 100 % of control
T/C (dose: 25.0 mg/kg/injection, schedule: Q04DX003 (ip), vehicle: saline): 104 % of control
T/C [1]: 104 % of control
T/C [2]: 113 % of control

c1ccc(CSc2ncnc3nc[nH]c23)nc1
T/C (dose: 50.0 mg/kg/injection, schedule: Q01DX009 (ip), vehicle: saline sonified): 100 % of control
T/C (dose: 50.0 mg/kg/injection, schedule: Q04DX003 (ip), vehicle: saline with Tween-80): 105 % of control
T/C [4]: 111 % of control
T/C [5]: 100 % of control
T/C [6]: 100 % of control

C[C@]1(O)CC[C@H]2[C@@H]3CCC4=CC(=O)CC[C@]4(C)[C@@]3(F)C(=O)C[C@@]21C
T/C [11]: 104 % of control
T/C [12]: 109 % of control
T/C [13]: 90 % of control
T/C [14]: 100 % of control
T/C [15]: 100 % of control
T/C [16]: 104 % of control

S=P(N1CC1)(N1CC1)N1CC1
T/C (dose: 0.19 mg/kg/injection, schedule: Q01DX009 (ip), vehicle: saline): 114 % of control
T/C (dose: 0.75 mg/kg/injection, schedule: Q01DX010 (ip), vehicle: saline): 90 % of control
T/C (dose: 1.0 mg/kg/injection, schedule: Q01DX001 (oral), vehicle: saline): 109 % of control
T/C (dose: 1.5 mg/kg/injection, schedule: Q01DX009 (ip), vehicle: saline): 121 % of control
T/C (dose: 1.5 mg/kg/injection, schedule: Q01DX010 (ip), vehicle: saline): 90 % of control and 109 % of control
T/C (dose: 3.0 mg/kg/injection, schedule: Q01DX009 (ip), vehicle: saline): 112 % of control
T/C (dose: 6.0 mg/kg/injection, schedule: Q01DX009 (ip), vehicle: saline): 91 % of control and 93 % of control and 206 % of control
T/C (dose: 6.0 mg/kg/injection, schedule: Q01DX010 (ip), vehicle: saline): 109 % of control and 110 % of control
T/C (dose: 12.0 mg/kg/injection, schedule: Q01DX009 (ip), vehicle: saline): 111 % of control

Cc1ccccc1-n1c(C)nc2ccccc2c1=O
T/C [11]: 100 % of control
T/C [12]: 96 % of control
T/C [13]: 92 % of control
T/C [14]: 104 % of control
T/C [15]: 91 % of control

Cc1cccc(CCl)c1
T/C (dose: 100.0 mg/kg/injection, schedule: Q04DX003 (ip), vehicle: saline sonified): 104 % of control
T/C (dose: 200.0 mg/kg/injection, schedule: Q04DX003 (ip), vehicle: saline sonified): 109 % of control
T/C (dose: 400.0 mg/kg/injection, schedule: Q04DX003 (ip), vehicle: saline sonified): 100 % of control

O=[N+]([O-])c1ccc(C(Br)C(Br)c2ccccc2Br)cc1 (stereo not drawn)
T/C [14]: 100 % of control
T/C [15]: 95 % of control
T/C [16]: 90 % of control

CCN(CC)CCN1C(=O)c2cccc3cccc(c23)C1=O
T/C (dose: 50.0 mg/kg/injection, schedule: Q01DX009 (ip), vehicle: saline): 105 % of control
T/C (dose: 66.0 mg/kg/injection, schedule: Q01DX009 (ip), vehicle: saline): 109 % of control
T/C [2]: 110 % of control
T/C (dose: 150.0 mg/kg/injection, schedule: Q01DX009 (ip), vehicle: saline): 172 % of control and 181 % of control
T/C [3]: 95 % of control

Clc1cc(C(Cl)(Cl)Cl)c(Cl)cc1C(Cl)(Cl)Cl
T/C [5]: 100 % of control
T/C [6]: 105 % of control
T/C [7]: 110 % of control

CC(C)(C)c1cc(CO)c(Sc2c(CO)cc(C(C)(C)C)cc2CO)c(CO)c1
T/C (dose: 400.0 mg/kg/injection, schedule: Q01DX001 (ip), vehicle: saline with Tween-80): 90 % of control

COc1ccc(Nc2c3ccccc3nc3ccccc23)cc1
T/C [8]: 208 % of control

CCCn1cnc2c(SCc3ccccc3Cl)nc(N)nc21
T/C (dose: 100.0 mg/kg/injection, schedule: Q01DX009 (ip), vehicle: Klucel (hydroxypropylcellulose) (HPC)): 90 % of control
T/C (dose: 100.0 mg/kg/injection, schedule: Q04DX003 (ip), vehicle: other): 100 % of control
T/C (dose: 200.0 mg/kg/injection, schedule: Q01DX009 (ip), vehicle: Klucel (hydroxypropylcellulose) (HPC)): 95 % of control
T/C (dose: 200.0 mg/kg/injection, schedule: Q04DX003 (ip), vehicle: other): 95 % of control
T/C (dose: 400.0 mg/kg/injection, schedule: Q04DX003 (ip), vehicle: other): 104 % of control

C(=C\c1ccccc1)/CSc1ncnc2nc[nH]c12
T/C [9]: 104 % of control
T/C [5]: 90 % of control
T/C [10]: 104 % of control
T/C [6]: 104 % of control
T/C (dose: 400.0 mg/kg/injection, schedule: Q01DX009 (ip), vehicle: saline with Tween-80): 100 % of control
T/C [7]: 100 % of control

CCCCCCCCCCCCCCC(F)C(=O)O (stereo not drawn)
T/C (dose: 6.25 mg/kg/injection, schedule: Q01DX009 (ip), vehicle: Klucel (hydroxypropylcellulose) (HPC)): 100 % of control
T/C [11]: 91 % of control
T/C [12]: 91 % of control and 95 % of control
T/C [14]: 95 % of control

Cc1ccc(NC(=O)Oc2ccc(Br)cc2Br)c([N+](=O)[O-])c1
T/C [9]: 122 % of control

Cc1ccc(C(c2ccc(C)cc2)C(Cl)(Cl)Cl)cc1
T/C (dose: 100.0 mg/kg/injection, schedule: Q01DX001 (ip), vehicle: saline sonified): 100 % of control
T/C (dose: 200.0 mg/kg/injection, schedule: Q01DX001 (ip), vehicle: saline sonified): 100 % of control
T/C (dose: 400.0 mg/kg/injection, schedule: Q01DX001 (ip), vehicle: saline sonified): 90 % of control
